# Assay results: US8067589B2, “Heterocyclic compounds useful in treating diseases and conditions” (Pfizer Inc, priority 2007, dated 2011)
# pIC50: −log10 of the molar value.
# Molecular target: human recombinant H-PGDS (Homo sapiens, UniProt O60760)
# Assay: Fluoresecence Intensity h-PGDSTBA Enzyme Assay
# Settings: 5.0 μM PGH2, 2.5 mM L-Glutathione, 10 min preincubation, 4-parameter fit, highest inhibitor concentration typically 1 μM
# human recombinant H-PGDS, sequence (O60760 whole entry): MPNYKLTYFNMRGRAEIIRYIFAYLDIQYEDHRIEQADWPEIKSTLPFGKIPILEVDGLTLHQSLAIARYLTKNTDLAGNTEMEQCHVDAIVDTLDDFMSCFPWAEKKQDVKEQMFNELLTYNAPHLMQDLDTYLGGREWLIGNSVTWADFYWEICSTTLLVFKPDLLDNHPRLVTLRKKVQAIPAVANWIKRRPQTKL
row,Compound,pIC50
1,"2-Phenyl-N-[1-(2,2,2- trifluoroethyl) piperidin-4-yl] pyrimidine-5- carboxamide [Example 9]",9.56

# Same assay, conditions: IC50, 5.0 μM PGH2, 2.5 mM L-Glutathione, 10 min preincubation, 4-parameter fit, highest inhibitor concentration typically 1 μM
row,Compound,pIC50
1,"CC(C)(C)OC(=O)N1C[C@H](O)[C@H](NC(=O)c2cnc(-c3cccc(F)c3)nc2)C1 (relative stereo) [Example 94, cis-tert-Butyl 3-(2-(3-fluorophenyl)pyrimidine-5-carboxamido)-4-hydroxypyrrolidine-1-carboxylate]",8.85
2,"N#Cc1ccccc1C(=O)c1cccnc1N1C[C@H](O)[C@H](NC(=O)c2cnc(-c3cccc(F)c3)nc2)C1 (relative stereo) [Example 97, Cis-N-{1-[3-(2-Cyanobenzoyl)pyridin-2-yl]-4-hydroxypyrrolidin-3-yl}-2-(3-fluorophenyl)pyrimidine-5-carboxamide]",8.42
3,"O=C(N[C@@H]1CN(c2ncccn2)C[C@@H]1O)c1cnc(-c2cccc(F)c2)nc1 (relative stereo) [Example 98, Cis-2-(3-Fluorophenyl)-N-[4-hydroxy-1-pyrimidin-2-ylpyrrolidin-3-yl]pyrimidine-5-carboxamide]",8.74
4,"NC(=O)c1cccnc1N1C[C@H](O)[C@H](NC(=O)c2cnc(-c3cccc(F)c3)nc2)C1 (relative stereo) [Example 99, Cis-N-{1-[3-(Aminocarbonyl)pyridin-2-yl]-4-hydroxypyrrolidin-3-yl}-2-(3-fluorophenyl)pyrimidine-5-carboxamide]",8.58
5,"N#Cc1ccc(C(F)(F)F)nc1N1C[C@H](O)[C@H](NC(=O)c2cnc(-c3cccc(F)c3)nc2)C1 (relative stereo) [Example 100, Cis-N-{1-[3-Cyano-6-(trifluoromethyl)pyridin-2-yl]-4-hydroxypyrrolidin-3-yl}-2-(3-fluorophenyl)pyrimidine-5-carboxamide]",8.35
6,"O=C(NC1CCN(c2ncc3c(n2)CCOC3)C1)c1cnc(-c2cccc(F)c2)nc1 (single isomer, unassigned) [Example 81a, N-(1-(7,8-Dihydro-5H-pyrano[4,3-d]pyrimidin-2-yl)pyrrolidin-3-yl)-2-(3-fluorophenyl)pyrimidine-5-carboxamide]",9.57
7,"O=C(NC1CCN(c2ncc3c(n2)CCOC3)C1)c1cnc(-c2cccc(F)c2)nc1 (single isomer, unassigned) [Example 81b, N-(1-(7,8-Dihydro-5H-pyrano[4,3-d]pyrimidin-2-yl)pyrrolidin-3-yl)-2-(3-fluorophenyl)pyrimidine-5-carboxamide]",9.34
8,"CCOC(=O)N1CCC(NC(=O)c2cnc(-c3cccc(F)c3)nc2)C1 (single isomer, unassigned) [Example 82a, Ethyl 3-(2-(3-fluorophenyl)pyrimidine-5-carboxamido)pyrrolidine-1-carboxylate]",8.72
9,"CCOC(=O)N1CCC(NC(=O)c2cnc(-c3cccc(F)c3)nc2)C1 (single isomer, unassigned) [Example 82b, Ethyl 3-(2-(3-fluorophenyl)pyrimidine-5-carboxamido)pyrrolidine-1-carboxylate]",9.24
10,"Cc1nc(-c2ccccc2)ncc1C(=O)NC1CCN(C(C)C)CC1 [Example 1, N-(1-Isopropylpiperidin-4-yl)-4-methyl-2-phenylpyrimidine-5-carboxamide]",6.79
11,"Cc1nc(-c2ccccc2)ncc1C(=O)NC1CCN(Cc2ccccc2)CC1 [Example 2, N-(1-Benzylpiperidin-4-yl)-4-methyl-2-phenylpyrimidine-5-carboxamide]",7.17
12,"Cc1nc(-c2ccccc2)ncc1C(=O)NC1CCN(Cc2ccccn2)CC1 [Example 3, 4-Methyl-2-phenyl-N-[1-(pyridin-2-ylmethyl)piperidin-4-yl]pyrimidine-5-carboxamide]",7.85
13,"Cc1nc(-c2ccccc2)ncc1C(=O)NC1CCN(C)CC1 [Example 4, 4-Methyl-N-(1-methylpiperid-4-yl)-2-phenylpyrimidine-5-carboxamide]",6.52
14,"CCCC(=O)N1CCC(NC(=O)c2cnc(-c3ccccc3)nc2C)CC1 [Example 5, N-(1-Butyrylpiperidin-4-yl)-4-methyl-2-phenylpyrimidine-5-carboxamide]",8.10
15,"CCOC(=O)N1CCC(NC(=O)c2cnc(-c3ccccc3)nc2C)CC1 [Example 6, Ethyl 4-{[(4-methyl-2-phenylpyrimidin-5-yl)carbonyl]amino)} piperidine-1-carboxylate]",8.18
16,"Cc1nc(-c2ccccc2)ncc1C(=O)NC1CCN(CC2CCOCC2)CC1 [Example 7, 4-Methyl-2-phenyl-N-[1-(tetrahydro-2H-pyran-4-ylmethyl)piperidin-4-yl] pyrimidine-5-carboxamide]",7.52
17,"O=C(NC1CCN(Cc2ccccn2)CC1)c1cnc(-c2ccccc2)nc1 [Example 8, 2-Phenyl-N-[1-(pyridin-2-ylmethyl)piperidin-4-yl] pyrimidine-5-carboxamide]",9.34
18,"CCCN1CCC(NC(=O)c2cnc(-c3ccccc3)nc2)CC1 [Example 10, 2-Phenyl-N-(1-propylpiperidin-4-yl) pyrimidine-5-carboxamide]",8.70
19,"CC(C)CN1CCC(NC(=O)c2cnc(-c3ccccc3)nc2)CC1 [Example 11, N-(1-Isobutylpiperidin-4-yl)-2-phenyl-pyrimidine-5-carboxamide]",9.42

row,Compound,pIC50
1,"O=C(NC1CCN(Cc2ccccc2)CC1)c1cnc(-c2ccccc2)nc1 [Example 12, N-(1-Benzylpiperidin-4-yl)-2-phenylpyrimidine-5-carboxamide]",9.37
2,"CC(C)N1CCC(NC(=O)c2cnc(-c3ccccc3)nc2)CC1 [Example 13, N-(1-Isopropylpiperidin-4-yl)-2-phenyl-pyrimidine-5-carboxamide]",8.20
3,"COc1cccc(OC)c1CN1CCC(NC(=O)c2cnc(-c3ccccc3)nc2)CC1 [Example 14, N-[1-(2,6-Dimethoxybenzyl)piperidin-4-yl]-2-phenylpyrimidine-5-carboxamide]",9.32
4,"CC(C)CN1CCC(NC(=O)c2cnc(-c3ccccc3)nc2N)CC1 [Example 15, 4-Amino-N-(1-isobutylpiperidin-4-yl)-2-phenyl-pyrimidine-5-carboxamide]",≤ 6.00
5,"CC(C)N1CCC(NC(=O)c2cnc(-c3ccccc3)nc2N)CC1 [Example 16, 4-Amino-N-(1-isopropylpiperidin-4-yl)-2-phenyl-pyrimidine-5-carboxamide]",6.66
6,"COc1cccc(OC)c1CN1CCC(NC(=O)c2cnc(-c3ccccc3)nc2N)CC1 [Example 17, 4-Amino-N-[1-(2,6-dimethoxybenzyl)piperidin-4-yl]-2-phenylpyrimidine-5-carboxamide]",7.71
7,"Nc1nc(-c2ccccc2)ncc1C(=O)NC1CCN(Cc2ccccn2)CC1 [Example 18, 4-Amino-2-phenyl-N-[1-(pyridin-2-ylmethyl)piperidin-4-yl]pyrimidine-5-carboxamide]",7.79
8,"O=C(NC1CCN(Cc2ccccc2)CC1)c1cnc(-c2ccccc2)nc1O [Example 19, N-(1-Benzylpiperidin-4-yl)-4-hydroxy-2-phenylpyrimidine-5-carboxamide]",≤ 6.00
9,"CC(C)(C)OC(=O)N1CCC(NC(=O)c2cnc(-c3ccccc3)nc2O)CC1 [Example 20, tert-Butyl 4-{[(4-hydroxy-2-phenyl-pyrimidin-5-yl)carbonyl]amino}piperidine-1-carboxylate]",≤ 6.00
10,"O=C(NC1CCN(Cc2ccccn2)CC1)c1cnc(-c2ccccc2)nc1O [Example 21, 4-Hydroxy-2-phenyl-N-[1-(pyridin-2-ylmethyl)piperidin-4-yl]pyrimidine-5-carboxamide]",6.00
11,"O=C(NC1CCN(CC(F)(F)F)CC1)c1cnc(-c2ccccc2)nc1O [Example 22, 4-Hydroxy-2-phenyl-N-[1-(2,2,2-trifluoroethyl)piperidin-4-yl] pyrimidine-5-carboxamide]",≤ 6.00
12,"COc1cccc(OC)c1CN1CCC(NC(=O)c2cnc(-c3ccccc3)nc2O)CC1 [Example 23, N-[1-(2,6-Dimethoxybenzyl)piperidin-4-yl]-4-hydroxy-2-phenyl-pyrimidine-5-carboxamide]",≤ 6.00
13,"CC(C)N1CCC(NC(=O)c2cnc(-c3ccccc3)nc2O)CC1 [Example 24, 4-Hydroxy-N-(1-isopropylpiperidin-4-yl)-2-phenyl pyrimidine-5-carboxamide]",≤ 6.00
14,"CNC(=O)N1CCC(NC(=O)c2cnc(-c3cccc(F)c3)nc2)CC1 [Example 25, 2-(3-Fluorophenyl)-N-{1-[(methylamino)carbonyl]piperidin-4-yl}pyrimidine-5-carboxamide]",9.43
15,"O=C(NC1CCN(c2cccnn2)CC1)c1cnc(-c2cccc(F)c2)nc1 [Example 26, 2-(3-Fluorophenyl)-N-(1-pyridazin-3-ylpiperidin-4-yl)pyrimidine-5-carboxamide]",9.87
16,"O=C(NC1CCN(CC(F)(F)F)CC1)c1cnc(-c2cccc(F)c2)nc1 [Example 27, 2-(3-Fluorophenyl)-N-[1-(2,2,2-trifluoroethyl)piperidin-4-yl]pyrimidine-5-carboxamide]",9.78
17,"N#Cc1ccc(OCC(c2ccccc2)N2CCC(NC(=O)c3cnc(-c4cccc(F)c4)nc3)CC2)cc1F (stereo not drawn) [Example 28, N-{1-[2-(4-Cyano-3-fluorophenoxy)-1-phenylethyl]piperidin-4-yl}-2-(3-fluorophenyl)pyrimidine-5-carboxamide]",8.35
18,"O=C(NC1CCN(C(COc2c(F)cccc2Cl)c2ccccc2)CC1)c1cnc(-c2cccc(F)c2)nc1 (stereo not drawn) [Example 29, N-{1-[2-(2-Chloro-6-fluorophenoxy)-1-phenylethyl]piperidin-4-yl}-2-(3-fluorophenyl)pyrimidine-5-carboxamide]",7.94
19,"O=C(NC1CCN(C(COc2c(F)cccc2F)c2ccccc2)CC1)c1cnc(-c2cccc(F)c2)nc1 (stereo not drawn) [Example 30, N-{1-[2-(2,6-Difluorophenoxy)-1-phenylethyl]piperidin-4-yl}-2-(3-fluorophenyl)pyrimidine-5-carboxamide]",8.18
